Measured values published in ChEMBL document CHEMBL1144270, “Carbonic anhydrase inhibitors. Interaction of isozymes I, II, IV, V, and IX with carboxylates” (Bioorg Med Chem Lett, 2005).

Tests used:
Carbonic anhydrase 4 = Carbonic anhydrase 4 (Homo sapiens, UniProt P22748); test: Binding affinity against human cytosolic Carbonic anhydrase IV
[1] = molecular target: Carbonic anhydrase 5A, mitochondrial (Homo sapiens, UniProt P35218); test: Binding affinity against human cytosolic Carbonic anhydrase V
Carbonic anhydrase 9 = Carbonic anhydrase 9 (Homo sapiens, UniProt Q16790); test: Binding affinity against human cytosolic Carbonic anhydrase IX
Carbonic anhydrase 2 = Carbonic anhydrase 2 (Homo sapiens, UniProt P00918); test: Binding affinity against human cytosolic Carbonic anhydrase II
Carbonic anhydrase 1 = Carbonic anhydrase 1 (Homo sapiens, UniProt P00915); test: Binding affinity against human cytosolic Carbonic anhydrase I (A = activator)
Chain of Carbonic anhydrase 1 (P00915 whole entry): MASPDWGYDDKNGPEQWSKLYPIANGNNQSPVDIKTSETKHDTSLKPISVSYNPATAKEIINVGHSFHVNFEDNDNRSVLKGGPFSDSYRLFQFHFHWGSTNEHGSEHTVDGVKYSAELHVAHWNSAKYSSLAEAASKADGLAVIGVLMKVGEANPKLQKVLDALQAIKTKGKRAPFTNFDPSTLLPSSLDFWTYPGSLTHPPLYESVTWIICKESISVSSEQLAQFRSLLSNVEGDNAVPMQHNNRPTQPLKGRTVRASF

Chain of Carbonic anhydrase 4 (P22748 whole entry): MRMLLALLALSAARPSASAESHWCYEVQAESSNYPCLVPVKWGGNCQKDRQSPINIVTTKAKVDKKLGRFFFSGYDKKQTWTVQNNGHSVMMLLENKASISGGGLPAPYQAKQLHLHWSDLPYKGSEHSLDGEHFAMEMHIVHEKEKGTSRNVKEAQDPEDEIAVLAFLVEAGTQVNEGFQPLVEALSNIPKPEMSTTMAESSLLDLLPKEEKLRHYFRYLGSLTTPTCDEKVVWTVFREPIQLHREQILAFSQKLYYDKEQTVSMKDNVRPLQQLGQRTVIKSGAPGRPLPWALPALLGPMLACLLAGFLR
Chain of Carbonic anhydrase 5A, mitochondrial (P35218 whole entry): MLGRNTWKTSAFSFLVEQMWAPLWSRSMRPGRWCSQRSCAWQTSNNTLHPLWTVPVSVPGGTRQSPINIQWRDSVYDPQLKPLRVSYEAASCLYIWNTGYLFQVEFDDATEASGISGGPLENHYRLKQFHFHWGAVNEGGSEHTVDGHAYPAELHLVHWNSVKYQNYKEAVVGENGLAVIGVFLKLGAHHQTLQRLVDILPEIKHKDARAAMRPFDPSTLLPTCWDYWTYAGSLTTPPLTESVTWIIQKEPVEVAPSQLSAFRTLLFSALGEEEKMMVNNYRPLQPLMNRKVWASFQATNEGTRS

Structure (SMILES) | Ki (Carbonic anhydrase 4) [µM] | Ki [1] [mM] | Ki (Carbonic anhydrase 9) [mM] | Ki (Carbonic anhydrase 2) [mM] | Ki (Carbonic anhydrase 1)
O=C(O)c1c(F)c(F)cc(F)c1F | 74.5 | 1.62 | 0.77 | 0.006 | –
O=C([O-])CC(=O)[O-].[Na+].[Na+] [DISODIUM MALONATE] | 2.8 | 6 | 1.27 | 1.62 | Activator
O=C(O)C[C@H](O)C(=O)O [E350] | 53.7 | 2.49 | 7.42 | 1.87 | Activator
CC(=O)C(=O)[O-].[Na+] [PYRUVATE SODIUM] | 14.5 | 5.5 | 1.12 | 2.11 | Activator
CC(=O)[O-].[Na+] [SODIUM ACETATE] | 550 | 25.9 | > 150 | 0.13 | Activator
O=C([O-])c1ccccc1.[Na+] [SODIUM BENZOATE] | 74.7 | 7.01 | > 150 | 0.03 | Activator
O=C([O-])O.[Na+] [SODIUM BICARBONATE] | – | 82 | – | – | –
O=C([O-])CC(O)(CC(=O)[O-])C(=O)[O-].[Na+].[Na+].[Na+] [SODIUM CITRATE] | 0.099 | 1.67 | 4.93 | 2.16 | Activator
O=C[O-].[Na+] [SODIUM FORMATE] | – | 9.97 | – | – | Activator
CC(O)C(=O)[O-].[Na+] (configuration not stated) [SODIUM LACTATE] | 1530 | 3.37 | > 150 | 3.22 | Activator
O=C([O-])C(=O)[O-].[Na+].[Na+] [SODIUM OXALATE] | 0.099 | 2.23 | 3.28 | 0.99 | Activator
